In US10329302B2, “Bicyclic-fused heteroaryl or aryl compounds” (Pfizer Inc., priority 2014, dated 2019):

Key:
serum TNF = assay: In Vivo Mouse LPS/D-Gal Challenge Model; conditions: oral
Description: In Vivo Mouse LPS/D-Gal Challenge Model.
Efficacy of IRAK4 compounds of the present invention was also evaluated in an in vivo mouse model of endotoxin induced (Lipopolysaccharide (LPS)) inflammation. See: S. Copeland, H. W. Warren, S. F. Lowry, S. E. Calvano, and D. Remick, Clin. Diagn. Lab. Immnol. 2005, 12(1), 60-67. An exemplary protocol for this in vivo model follows.
Female C57/BL6 mice, 8 to 10 weeks old, are orally administered either vehicle or formulated IRAK-4 compound 1 hour prior to the challenge. Vehicle or IRAK4 compound is administered by oral gavage at a volume of 10 mL/kg. One hour post oral delivery of vehicle or compound, the animals are challenged with an intraperitoneal injection (IP) of a solution containing 1 μg/mL LPS and 80 mg/mL D-gal. Each mouse is injected with […] of the solution, for a final challenge dose of 100 ng LPS and 8 mg D-gal. Ninety minutes post LPS/D-gal challenge, animals are euthanized and blood collected. Blood is allowed to clot at room temperature and serum is separated by centrifugation and stored at −80° C. for analysis. Serum TNF and IL-6 are measured by Meso Scale Discovery (MSD) multiplex platform.
The groups consisted of N=10 animals/group. Naïve animals and vehicle control groups were run with each study. Mean cytokine data was plotted and students T-test was performed to calculate significance (t-test, p<0.05 vs. vehicle) of IRAK4 treated group vs. vehicle treated group. Percent inhibition of cytokine induction was calculated for IRAK4 treated group vs. vehicle treated group.
Table 4 contains data from multiple studies with columns for Compound, Dose in mg/kg (mpk) and % inhibition of serum TNF. In cases where doses of certain compounds were repeated in multiple experiments, the average percent inhibition of TNF and standard deviation is shown in the table.

Female Lewis rats = assay: In Vivo Rat Collagen-Induced Arthritis Model; conditions: for days on which hind paw swelling was significantly reduced (t-test, p<0.05 vs. vehicle): CIA Lewis rats, paw volume by plethysmograph
Description: In Vivo Rat Collagen-Induced Arthritis Model.
Efficacy of IRAK4 compounds of the present invention was also evaluated in a rat in vivo model of rheumatoid arthritis (M. Hegen, J. C. Keith, Jr, M. Collins, C. L. Nickerson-Nutter, Ann. Rheum. Dis. 2008, 67, 1505-1515). An exemplary protocol for this in vivo model follows.
Female Lewis rats, approximately 7 weeks old, were immunized with an emulsion of type II collagen (CII) and incomplete Freund's adjuvant (IFA) on day 0 and received a boost of CII/IFA on day 7. Hind paw volume increase was taken by plethysmograph. Animals were randomly enrolled into treatment groups based on the development of disease. Beginning on day 11 post immunization, rats were enrolled into random treatment groups based on an increase in a single hind paw volume compared to day 7 post immunization baseline measurements.
Ten rats were enrolled per treatment group with the exception of the naive control group, which contained two rats. Day 0 was designated as the first treatment day, and paw measurements are taken daily by plethysmograph. The rats were weighed on a daily basis.
IRAK4 inhibitors are efficacious in the Lewis rat model of collagen-induced arthritis.

[1] = target: human IRAK4 FL (Full Length) (Homo sapiens (Human), UniProt Q9NWZ3); assay: IRAK4 Enzymatic DELFIA Assay, Protocol A; format: biochemical; conditions: human IRAK4 FL, 0.6 mM ATP (KM); read-out: IRAK4 DELFIA Protocol A IC50
[2] = test system: R848-induced TNFα production by human peripheral blood mononuclear cells (PBMCs); assay: R848 Induced TNFα in Human PBMC Assay; format: cell-based; conditions: Homo sapiens, PBMC, 3 h, read-out: R848-induced TNFa PBMC IC50 (nM)

Chain of human IRAK4 FL (Full Length) (Q9NWZ3 whole entry): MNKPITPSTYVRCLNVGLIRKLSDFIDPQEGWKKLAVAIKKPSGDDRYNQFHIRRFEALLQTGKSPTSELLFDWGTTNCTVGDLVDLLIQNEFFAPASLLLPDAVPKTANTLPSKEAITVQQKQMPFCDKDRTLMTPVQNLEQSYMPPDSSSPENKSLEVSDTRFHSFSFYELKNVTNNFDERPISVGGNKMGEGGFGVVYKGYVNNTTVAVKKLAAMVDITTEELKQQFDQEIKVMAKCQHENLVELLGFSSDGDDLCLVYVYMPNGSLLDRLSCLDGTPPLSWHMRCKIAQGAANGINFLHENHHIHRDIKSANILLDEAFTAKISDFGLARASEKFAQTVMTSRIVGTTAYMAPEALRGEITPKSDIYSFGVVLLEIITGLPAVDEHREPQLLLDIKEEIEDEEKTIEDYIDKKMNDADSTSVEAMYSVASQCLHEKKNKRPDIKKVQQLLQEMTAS

Compound	% inhib TNF (serum TNF; Dose 30 mpk)	% inhib TNF (serum TNF; Dose 100 mpk)	IC50 [2] [nM]	further results
CC(C)Oc1cc2c(OC[C@@H]3CCC(=O)N3)nccc2cc1C(N)=O [Example 26, 1-{[(2S)-5-oxopyrrolidin-2-yl]methoxy}-7-(propan-2-yloxy)isoquinoline-6-carboxamide]	41 (±17) %	78 (±23) %	–	% inhib TNF (serum TNF; Dose 10 mpk): 27 (±19) %; hind paw swelling in CIA rats (Female Lewis rats; 10 mg/kg PO, BID): transiently significant reduction in hind paw swelling only on Day 5 and Day 6 post treatment; days on which hind paw swelling was significantly reduced (t-test, p<0.05 vs. vehicle) (Female Lewis rats; 30 mg/kg PO, BID, therapeutic treatment for 8 days): Day 2-Day 8; days on which hind paw swelling was significantly reduced (t-test, p<0.05 vs. vehicle) (Female Lewis rats; 100 mg/kg PO, BID, therapeutic treatment for 8 days): Day 1-Day 8 (end); hind paw swelling in CIA rats (Female Lewis rats; therapeutic treatment BID daily for 8 days, t-test p<0.05 vs. vehicle): reduced the hind paw swelling in CIA rats significantly
COc1cc2c(OC[C@@H]3CCC(=O)N3)cccc2cc1C(N)=O [Example 173, 3-methoxy-5-{[(2S)-5-oxopyrrolidin-2-yl]methoxy}naphthalene-2-carboxamide]	55%	98%	–	–
Cc1ccc(-n2nc(C(C)(C)C)cc2NC(=O)Nc2ccc(OCCN3CCOCC3)c3ccccc23)cc1 [BIRB796]	–	–	–	days on which hind paw swelling was significantly reduced (t-test, p<0.05 vs. vehicle) (Female Lewis rats; 30 mg/kg PO, QD, positive control (p38 inhibitor)): Day 1-Day 8
COc1cc2c(OC[C@@H]3C[C@](C)(F)C(=O)N3)cccc2cc1C(N)=O [Example 194, 5-{[(2S,4S)-4-fluoro-4-methyl-5-oxopyrrolidin-2-yl]methoxy}-3-methoxynaphthalene-2-carboxamide]	76%	–	5.2	IC50 [1]: 1 nM
COc1cc2c(OC[C@H]3NC(=O)[C@@H](F)[C@H]3C)nccc2cc1C(N)=O [Example 189, 1-{[(2S,3S,4S)-4-fluoro-3-methyl-5-oxopyrrolidin-2-yl]methoxy}-7-methoxyisoquinoline-6-carboxamide]	40%	–	12	–
